Among the data in publication PMC12549899 (Nature Communications, 2025) are inhibition values, retold here.

One test addresses T1, mouse OTOP1 (mOTOP1) (Mus musculus, UniProt Q80VM9).
T1 construct: expressed in transfected cells; host or cells: HEK-293 (CRL-1573, ATCC)
T1 sequence (Q80VM9 1-600): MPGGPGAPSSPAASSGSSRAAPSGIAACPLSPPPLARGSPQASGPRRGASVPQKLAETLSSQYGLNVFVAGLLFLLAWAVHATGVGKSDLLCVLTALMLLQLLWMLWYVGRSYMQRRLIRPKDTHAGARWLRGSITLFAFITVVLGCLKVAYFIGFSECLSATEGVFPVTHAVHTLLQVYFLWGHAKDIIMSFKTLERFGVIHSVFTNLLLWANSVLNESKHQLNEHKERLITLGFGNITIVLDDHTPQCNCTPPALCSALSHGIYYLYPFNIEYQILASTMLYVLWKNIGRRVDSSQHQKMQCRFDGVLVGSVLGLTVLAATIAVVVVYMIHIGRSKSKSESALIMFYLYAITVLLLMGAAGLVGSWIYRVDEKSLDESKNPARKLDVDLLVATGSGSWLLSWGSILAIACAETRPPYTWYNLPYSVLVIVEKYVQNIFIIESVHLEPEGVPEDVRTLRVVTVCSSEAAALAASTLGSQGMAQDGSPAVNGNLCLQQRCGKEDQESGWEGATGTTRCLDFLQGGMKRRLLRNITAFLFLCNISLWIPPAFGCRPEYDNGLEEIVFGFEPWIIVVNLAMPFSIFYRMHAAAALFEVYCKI
Kind of test: Whole-cell patch-clamp, inhibition of currents, mOTOP1 in HEK-293 cells. In kind it is cell-based. Conditions: HEK293, 100 µM (saturating concentration of C2.2). From the text: (§1) The second series of compounds was again tested by whole-cell patch-clamp recording of DrOTOP1 expressed in HEK-293 cells. Of the 54 compounds tested, we identified 16 that inhibited DrOTOP1 acid-induced currents by over 25% (Fig. 2D and Supplementary Fig. 3E). […] The Hill coefficient of 1.52 indicated positive cooperativity and multiple binding sites, similar to C11. We next tested each of these compounds against mouse OTOP1 (mOTOP1) and human (Homo sapiens) OTOP1 (hOTOP1), which are among the closest related proteins in the mammalian proteome. […] For both compounds, we also determined whether there was any pH-dependence to their inhibitory effect by measuring dose-response curves over a range from pH 6.0, where sizable currents first appear, to pH 5.0. […]
(§2) Whole-cell patch-clamp recording was performed as previously described[6],[22],[25]. Recordings were made with an Axopatch 200B amplifier, digitized with a Digidata 1322a 16-bit data acquisition system, acquired with pClamp 8.2 and analyzed with Clampfit 10 (Molecular Devices). […]
(§3) All data are presented as mean ± SEM unless otherwise noted, and each data point represents an independent replicant. Inhibition of compounds was quantified as ((I2peak-I1)/(I2peak))*100, where I1 is the current immediately before wash-off and I2peak is the maximum recovered current (Supplementary Fig. 2). […]
(Patch clamp records ionic current or voltage across a cell membrane.)

In the next test the target is T2, human OTOP1 (hOTOP1) (Homo sapiens, UniProt Q7RTM1).
T2 construct: expressed in transfected cells; host or cells: HEK-293 (CRL-1573, ATCC)
T2 sequence (Q7RTM1 1-612): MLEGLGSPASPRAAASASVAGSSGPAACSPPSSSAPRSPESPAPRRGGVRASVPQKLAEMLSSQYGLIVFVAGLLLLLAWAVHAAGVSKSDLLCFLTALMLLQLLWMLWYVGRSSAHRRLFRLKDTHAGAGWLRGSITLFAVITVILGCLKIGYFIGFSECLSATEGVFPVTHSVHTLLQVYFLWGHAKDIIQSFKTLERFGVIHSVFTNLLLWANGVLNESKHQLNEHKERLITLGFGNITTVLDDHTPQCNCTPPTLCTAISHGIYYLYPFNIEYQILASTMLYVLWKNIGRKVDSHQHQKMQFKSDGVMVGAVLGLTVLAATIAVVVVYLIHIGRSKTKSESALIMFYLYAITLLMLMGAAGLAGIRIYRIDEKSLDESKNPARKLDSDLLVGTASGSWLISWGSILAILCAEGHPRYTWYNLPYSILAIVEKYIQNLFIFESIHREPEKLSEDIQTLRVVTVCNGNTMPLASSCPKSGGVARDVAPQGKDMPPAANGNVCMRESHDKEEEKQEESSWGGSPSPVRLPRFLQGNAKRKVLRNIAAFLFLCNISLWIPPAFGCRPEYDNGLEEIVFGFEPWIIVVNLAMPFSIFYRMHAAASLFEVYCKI
Kind of test: Whole-cell patch-clamp, inhibition of currents, hOTOP1 in HEK-293 cells. In kind it is cell-based. Conditions: HEK293, 300 µM (saturating concentration of C11).
Text: as §1, §2, §3

In general, inhibition refers to how much of the control response was suppressed. `C=C(C)COc1ccccc1NC(=O)c1nc[nH]c1C` [C2.2] showed an inhibition at 100 µM at mouse OTOP1 (mOTOP1) of 1.92%. On human OTOP1 (hOTOP1), `O=C(/C(=N\O)c1ccccc1)c1ccccc1` [C11, benzil monoxime] registered an inhibition at 300 µM of roughly 24%.
